According to patent US7118895B2, “Process for producing aglycon by using diglycosidase and flavor-improved food containing the aglycon and converting agent to be used in the process” (Amano Enzyme Inc., priority 2000, dated 2006):

How the values were obtained:
[1] = test system: Diglycosidase derived from A. fumigatus; assay: Reactivity toward various isoflavone glycosides (HPLC); type: biochemical, Aspergillus fumigatus; parameters: unit not given here; settings: 55 °C, pH 4.0
Protocol: (§1) Diglycosidase was diluted with an acetate buffer of pH 4.0 to prepare a 0.75 AU/mL enzyme solution. As references, a similar operation was conducted using β-glucosidase (manufactured by Fluka) derived from Aspergillus niger, β-glucosidase (manufactured by Sigma) derived from almond, β-xylosidase derived from pectinase G (manufactured by Amano Enzyme Inc.). Each of purified products of isoflavone glycosides (glycitin, acetylglycitin, malonylglycitin, daidzin, acetyldaidzin, malonyldaidzin, genistin, acetylgenistin, malonylgenistin, all manufactured by Nacalai Tesque, Inc.) was dissolved in methanol to prepare each 2 mM substrate solution. The reaction was carried out by mixing 10 μL of a substrate solution, 200 μL of 20 mM acetate buffer (pH 4.0), and 40 μL of each purified enzyme solution at a total liquid volume of 250 μL. The reaction was carried out at 55° C. and isolation of an aglycon isoflavone from an isoflavone glycoside in the reaction mixture was detected by HLPC at 0, 1, 3, and 6 hours of the reaction.
(§2) To the reaction mixture was added 700 μL of ethanol, followed by stirring and ultrasonication. After centrifugation at 15,000 rpm and 4° C. for 10 minutes, the supernatant was filtered through a filter and then the filtrate was applied to HPLC.
(§3) The isoflavone glycoside and aglycon isoflavone contained in the filtrate was separated and detected by a high performance liquid chromatography (HPLC, Shimadzu CLASS LC-10 system) using TOSOH TSK gel ODS-80TM column (manufactured by Tosoh Corporation). […] The absorbance at 260 nm was detected by a UV detector (Shimadzu, SPD-10AV). Using purified products (manufactured by Nacalai Tesque, Inc.) of the above isoflavone glycosides and aglycon isoflavones, the isoflavone glycoside and aglycon isoflavone were quantitatively determined according to a calibration curve method. By the way, unless otherwise stated, the measuring conditions of HPLC herein mean those described in the example.

[2] = test system: β-Glucosidase derived from almond; assay: as above; type: biochemical; parameters: unit not given here; settings: 55 °C, pH 4.0
Protocol: as §1, §2, §3

[3] = test system: β-Xylosidase derived from pectinase G; assay: as above; type: biochemical; parameters: unit not given here; settings: 55 °C, pH 4.0
Protocol: as §1, §2, §3

Purified diglycosidase = assay: Influence of free glucose on diglycosidase activity; type: biochemical, Penicillium multicolor IAM7153; settings: isolated aglycon amount at glucose 0% and 0.5 hour = 100%
Protocol: Purified diglycosidase was diluted with 20 mM acetate buffer of pH 4.0 to prepare a 0.75 AU/mL enzyme solution.
With a glucose solution was mixed 10 μL of each 2 mM substrate solution described in Example 2, and 20 mM acetate buffer of pH 4.0 was added thereto to be a liquid volume of 210 μL. Further, 40 μL of the enzyme solution was added and reaction was carried out at a final liquid volume of 250 μL. Adjustment of the glucose solution to be added allows glucose to exist in the reaction mixture in the range of 0 to 20%. The reaction was carried out at 55° C. and the existence of isoflavone glycosides and aglycon isoflavones was detected by HLPC at 0, 0.5, 1, and 3 hours of the reaction.

| SMILES | aglycon ([1]; Reaction time 0 h) | glucoside ([1]; Reaction time 0 h) | aglycon ([1]; Reaction time 1 h) | glucoside ([1]; Reaction time 1 h) | aglycon ([1]; Reaction time 3 h) | glucoside ([1]; Reaction time 3 h) | aglycon ([1]; Reaction time 6 h) | glucoside ([1]; Reaction time 6 h) | aglycon ([2]; Reaction time 0 h) | glucoside ([2]; Reaction time 0 h) | aglycon ([2]; Reaction time 1 h) | glucoside ([2]; Reaction time 1 h) | aglycon ([2]; Reaction time 3 h) | glucoside ([2]; Reaction time 3 h) | aglycon ([2]; Reaction time 6 h) | glucoside ([2]; Reaction time 6 h) | aglycon ([3]; Reaction time 0 h) | glucoside ([3]; Reaction time 0 h) | aglycon ([3]; Reaction time 1 h) | glucoside ([3]; Reaction time 1 h) | also measured |
| --- | --- | --- | --- | --- | --- | --- | --- | --- | --- | --- | --- | --- | --- | --- | --- | --- | --- | --- | --- | --- | --- |
| CC(=O)OC[C@H]1O[C@@H](Oc2ccc3c(=O)c(-c4ccc(O)cc4)coc3c2)[C@H](O)[C@@H](O)[C@@H]1O [acetyldaidzin, 6″-O-acetyldaidzin] | 0 | 100 | 26.1 | 73.9 | 47.2 | 52.8 | 66.5 | 33.5 | 0.2 | 99.8 | 0.5 | 99.5 | 0.6 | 99.4 | 0.6 | 99.4 | 0 | 100 | 9.7 | 90.3 | aglycon ([3]; Reaction time 3 h): 1.3; glucoside ([3]; Reaction time 3 h): 98.7; aglycon ([3]; Reaction time 6 h): 2.3; glucoside ([3]; Reaction time 6 h): 97.7; Isolation of isoflavone aglycons by diglycosidase in presence of glucose (Purified diglycosidase; Glucose concentration 0 %): 100%; Isolation of isoflavone aglycons by diglycosidase in presence of glucose (Purified diglycosidase; Glucose concentration 2 %): 108.1%; Isolation of isoflavone aglycons by diglycosidase in presence of glucose (Purified diglycosidase; Glucose concentration 4 %): 112.2%; Isolation of isoflavone aglycons by diglycosidase in presence of glucose (Purified diglycosidase; Glucose concentration 8 %): 115.8%; Isolation of isoflavone aglycons by diglycosidase in presence of glucose (Purified diglycosidase; Glucose concentration 20 %): 114.5% |
| CC(=O)OC[C@H]1O[C@@H](Oc2cc(O)c3c(=O)c(-c4ccc(O)cc4)coc3c2)[C@H](O)[C@@H](O)[C@@H]1O [acetylgenistin, 6″-O-acetylgenistin] | 0 | 100 | 12.6 | 87.4 | 22.9 | 77.1 | 35.2 | 64.8 | 0 | 100 | 0 | 100 | 0 | 100 | 0 | 100 | 0 | 100 | 0 | 100 | aglycon ([3]; Reaction time 3 h): 0.2; glucoside ([3]; Reaction time 3 h): 99.8; aglycon ([3]; Reaction time 6 h): 0.5; glucoside ([3]; Reaction time 6 h): 99.5; Isolation of isoflavone aglycons by diglycosidase in presence of glucose (Purified diglycosidase; Glucose concentration 0 %): 100%; Isolation of isoflavone aglycons by diglycosidase in presence of glucose (Purified diglycosidase; Glucose concentration 2 %): 104.1%; Isolation of isoflavone aglycons by diglycosidase in presence of glucose (Purified diglycosidase; Glucose concentration 4 %): 104.1%; Isolation of isoflavone aglycons by diglycosidase in presence of glucose (Purified diglycosidase; Glucose concentration 8 %): 104.1%; Isolation of isoflavone aglycons by diglycosidase in presence of glucose (Purified diglycosidase; Glucose concentration 20 %): 104.1% |
| O=c1c(-c2ccc(O)cc2)coc2cc(O[C@@H]3O[C@H](CO)[C@@H](O)[C@H](O)[C@H]3O)ccc12 [daidzin] | 0.9 | 99.1 | 7.1 | 92.9 | 14.7 | 85.3 | 24.8 | 75.2 | 0.9 | 99.1 | 9.1 | 90.9 | 10.8 | 89.2 | 11.3 | 88.7 | 0.9 | 99.1 | 9.1 | 90.9 | aglycon ([3]; Reaction time 3 h): 24; glucoside ([3]; Reaction time 3 h): 76; aglycon ([3]; Reaction time 6 h): 42.1; glucoside ([3]; Reaction time 6 h): 57.9; Isolation of isoflavone aglycons by diglycosidase in presence of glucose (Purified diglycosidase; Glucose concentration 0 %): 100%; Isolation of isoflavone aglycons by diglycosidase in presence of glucose (Purified diglycosidase; Glucose concentration 2 %): 128.1%; Isolation of isoflavone aglycons by diglycosidase in presence of glucose (Purified diglycosidase; Glucose concentration 4 %): 126%; Isolation of isoflavone aglycons by diglycosidase in presence of glucose (Purified diglycosidase; Glucose concentration 8 %): 129.1%; Isolation of isoflavone aglycons by diglycosidase in presence of glucose (Purified diglycosidase; Glucose concentration 20 %): 111.9% |

Further lines, with some results ahead:

| aglycon ([1]; Reaction time 0 h) | glucoside ([1]; Reaction time 0 h) | aglycon ([1]; Reaction time 1 h) | glucoside ([1]; Reaction time 1 h) | aglycon ([1]; Reaction time 3 h) | glucoside ([1]; Reaction time 3 h) | aglycon ([1]; Reaction time 6 h) | glucoside ([1]; Reaction time 6 h) | aglycon ([2]; Reaction time 0 h) | glucoside ([2]; Reaction time 0 h) | aglycon ([2]; Reaction time 1 h) | glucoside ([2]; Reaction time 1 h) | aglycon ([2]; Reaction time 3 h) | glucoside ([2]; Reaction time 3 h) | aglycon ([2]; Reaction time 6 h) | glucoside ([2]; Reaction time 6 h) | aglycon ([3]; Reaction time 0 h) | glucoside ([3]; Reaction time 0 h) | aglycon ([3]; Reaction time 1 h) | glucoside ([3]; Reaction time 1 h) | SMILES | also measured |
| --- | --- | --- | --- | --- | --- | --- | --- | --- | --- | --- | --- | --- | --- | --- | --- | --- | --- | --- | --- | --- | --- |
| 0 | 100 | 6 | 94 | 13.5 | 86.5 | 22.7 | 77.3 | 0 | 100 | 0 | 100 | 0 | 100 | 0 | 100 | 0 | 100 | 0 | 100 | COc1cc2c(=O)c(-c3ccc(O)cc3)coc2cc1O[C@@H]1O[C@H](COC(C)=O)[C@@H](O)[C@H](O)[C@H]1O [acetylglycitin, 6″-O-acetylglycitin] | aglycon ([3]; Reaction time 3 h): 0; glucoside ([3]; Reaction time 3 h): 100; aglycon ([3]; Reaction time 6 h): 0; glucoside ([3]; Reaction time 6 h): 100; Isolation of isoflavone aglycons by diglycosidase in presence of glucose (Purified diglycosidase; Glucose concentration 0 %): 100%; Isolation of isoflavone aglycons by diglycosidase in presence of glucose (Purified diglycosidase; Glucose concentration 2 %): 100.9%; Isolation of isoflavone aglycons by diglycosidase in presence of glucose (Purified diglycosidase; Glucose concentration 4 %): 100.9%; Isolation of isoflavone aglycons by diglycosidase in presence of glucose (Purified diglycosidase; Glucose concentration 8 %): 100.9%; Isolation of isoflavone aglycons by diglycosidase in presence of glucose (Purified diglycosidase; Glucose concentration 20 %): 100.9% |
| 0 | 100 | 0 | 100 | 0 | 100 | 0 | 100 | 0 | 100 | 9.4 | 90.6 | 11.4 | 88.6 | 11.8 | 88.2 | 0 | 100 | 1.5 | 98.5 | O=c1c(-c2ccc(O)cc2)coc2cc(O[C@@H]3O[C@H](CO)[C@@H](O)[C@H](O)[C@H]3O)cc(O)c12 [genistin] | aglycon ([3]; Reaction time 3 h): 1.8; glucoside ([3]; Reaction time 3 h): 98.2; aglycon ([3]; Reaction time 6 h): 1.8; glucoside ([3]; Reaction time 6 h): 98.2 |
| 0 | 100 | 0.5 | 99.5 | 0 | 100 | 0 | 100 | 0 | 100 | 1.6 | 98.4 | 1.9 | 98.1 | 1.9 | 98.1 | 0 | 100 | 0.8 | 99.2 | COc1cc2c(=O)c(-c3ccc(O)cc3)coc2cc1O[C@@H]1O[C@H](CO)[C@@H](O)[C@H](O)[C@H]1O [glycitin] | aglycon ([3]; Reaction time 3 h): 2.4; glucoside ([3]; Reaction time 3 h): 97.6; aglycon ([3]; Reaction time 6 h): 4.5; glucoside ([3]; Reaction time 6 h): 95.5; Isolation of isoflavone aglycons by diglycosidase in presence of glucose (Purified diglycosidase; Glucose concentration 0 %): 100%; Isolation of isoflavone aglycons by diglycosidase in presence of glucose (Purified diglycosidase; Glucose concentration 2 %): 96%; Isolation of isoflavone aglycons by diglycosidase in presence of glucose (Purified diglycosidase; Glucose concentration 4 %): 99.7%; Isolation of isoflavone aglycons by diglycosidase in presence of glucose (Purified diglycosidase; Glucose concentration 8 %): 100.1%; Isolation of isoflavone aglycons by diglycosidase in presence of glucose (Purified diglycosidase; Glucose concentration 20 %): 92.8% |
| 0 | 100 | 10 | 90 | 20.5 | 79.5 | 32.3 | 67.7 | 0 | 100 | 0 | 100 | 0 | 100 | 0 | 100 | 0 | 100 | 0.4 | 99.6 | O=C(O)CC(=O)OC[C@H]1O[C@@H](Oc2ccc3c(=O)c(-c4ccc(O)cc4)coc3c2)[C@H](O)[C@@H](O)[C@@H]1O [malonyldaidzin, 6″-O-malonyldaidzin] | aglycon ([3]; Reaction time 3 h): 1.6; glucoside ([3]; Reaction time 3 h): 98.4; aglycon ([3]; Reaction time 6 h): 3.3; glucoside ([3]; Reaction time 6 h): 96.7; Isolation of isoflavone aglycons by diglycosidase in presence of glucose (Purified diglycosidase; Glucose concentration 0 %): 100%; Isolation of isoflavone aglycons by diglycosidase in presence of glucose (Purified diglycosidase; Glucose concentration 2 %): 125.3%; Isolation of isoflavone aglycons by diglycosidase in presence of glucose (Purified diglycosidase; Glucose concentration 4 %): 132.1%; Isolation of isoflavone aglycons by diglycosidase in presence of glucose (Purified diglycosidase; Glucose concentration 8 %): 125.4%; Isolation of isoflavone aglycons by diglycosidase in presence of glucose (Purified diglycosidase; Glucose concentration 20 %): 98.1% |
